# Assay results published in patent publication US20060100187A1, “Synergistic combinations of macrolide t-cell modulator or immunosuppressant and a retinoid” (priority 2003, published 2006).
# What was measured:
# [1] = test system: allogeneic kidney transplantation; conditions: oral administration; cited from earlier work
# [2] = test system: DNFB-elicited allergic contact dermatitis (contact hypersensitivity reaction); conditions: for Efficacy, global mean of differences in scores of untreated and treated test sites: erythema and induration scored 24 hours after DNFB challenge, 80 mg formulation topically at 30 minutes and 6 hours after challenge, 1% Elidel cream, 0.1% Zorac gel; for Efficacy %, single drug treatment with pimecrolimus set to 100%: relative to pimecrolimus/pimecrolimus, topical at 30 minutes and 6 hours after challenge, scored at 24 hours
# Method: 12 days before elicitation of ACD, 17 male domestic pigs receive 500 μl of 10% 2,4-dinitrofluorobenzene (DNFB) dissolved in dimethylsulfoxide/acetone/olive oil (1:5:3 v/v/v) epicutaneously in divided volumes onto the base of both ears and onto both groins (100 μl/site) for sensitization. The challenge reaction is elicited with 15 μl of DNFB 1.0% on test sites (7 cm^2 in size) arranged on both sides of the shaved dorsolateral back.
# The test sites on the right dorsolateral side are treated with 80 mg formulation twice whereas the left controlateral test sites remain untreated for comparison. The test sites are treated 30 minutes after challenge, followed by the second application at 6 hours of the same drug or, in case of combination, the other drug.
compound,measurement,setting,value
C=CC[C@@H]1/C=C(\C)C[C@H](C)C[C@H](OC)[C@H]2O[C@@](O)(C(=O)C(=O)N3CCCC[C@H]3C(=O)O[C@H](/C(C)=C/[C@@H]3CC[C@@H](O)[C@H](OC)C3)[C@H](C)[C@@H](O)CC1=O)[C@H](C)C[C@@H]2OC [tacrolimus],minimum effective dose (MED),[1],14 mg/kg
CCOC(=O)c1ccc(C#Cc2ccc3c(c2)C(C)(C)CCS3)nc1 [tazarotene],"Efficacy, global mean of differences in scores of untreated and treated test sites",[2],2.96
same,"Efficacy %, single drug treatment with pimecrolimus set to 100%",[2],89%
"{[1E-(1R,3R,4S)]}1R,9S,12S, 13R,14S,17R,18E,21S,23S,24R,25S,27R}-12-[2-(4-chloro-3-methoxycyclohexyl)-1-methylvinyl]-17-ethyl-1,14-dihydroxy-23,25-dimethoxy-13,19,21,27-tetramethyl-11, 28,dioxa-4-azatricyclo [22.3.1.0(4,9)]octacos-18-ene-2,3,10,16-tetraone [pimecrolimus]",superiority in comparison with tazarotene/tazarotene treatment,[2]; difference of relative efficacy %,11%
same,"Efficacy, global mean of differences in scores of untreated and treated test sites",[2],3.34
same,"Efficacy %, single drug treatment with pimecrolimus set to 100%",[2],100%
same,inhibition of the contact hypersensitivity reaction,"[2]; single drug treatment, two topical applications, scored 24 hours after challenge",57%
